pEC50: −log10 of the molar value.
target: T1, α4β7 integrin interaction with MadCAM-1 (RPMI8866 cells) (Homo sapiens, UniProt P13612+P26010); test: α4β7 Integrin Cell Capture Assay; type: cell-based; details: capture of α4β7 integrin expressing RPMI8866 cells on recombinant MadCAM-1 extracellular domain-coated plate; 0.5 mM MnCl2
T1 construct: α4β7 integrin expressing cells; endogenous in cells; host or cells: RPMI8866 cells
T1 sequence (P13612 34-1032): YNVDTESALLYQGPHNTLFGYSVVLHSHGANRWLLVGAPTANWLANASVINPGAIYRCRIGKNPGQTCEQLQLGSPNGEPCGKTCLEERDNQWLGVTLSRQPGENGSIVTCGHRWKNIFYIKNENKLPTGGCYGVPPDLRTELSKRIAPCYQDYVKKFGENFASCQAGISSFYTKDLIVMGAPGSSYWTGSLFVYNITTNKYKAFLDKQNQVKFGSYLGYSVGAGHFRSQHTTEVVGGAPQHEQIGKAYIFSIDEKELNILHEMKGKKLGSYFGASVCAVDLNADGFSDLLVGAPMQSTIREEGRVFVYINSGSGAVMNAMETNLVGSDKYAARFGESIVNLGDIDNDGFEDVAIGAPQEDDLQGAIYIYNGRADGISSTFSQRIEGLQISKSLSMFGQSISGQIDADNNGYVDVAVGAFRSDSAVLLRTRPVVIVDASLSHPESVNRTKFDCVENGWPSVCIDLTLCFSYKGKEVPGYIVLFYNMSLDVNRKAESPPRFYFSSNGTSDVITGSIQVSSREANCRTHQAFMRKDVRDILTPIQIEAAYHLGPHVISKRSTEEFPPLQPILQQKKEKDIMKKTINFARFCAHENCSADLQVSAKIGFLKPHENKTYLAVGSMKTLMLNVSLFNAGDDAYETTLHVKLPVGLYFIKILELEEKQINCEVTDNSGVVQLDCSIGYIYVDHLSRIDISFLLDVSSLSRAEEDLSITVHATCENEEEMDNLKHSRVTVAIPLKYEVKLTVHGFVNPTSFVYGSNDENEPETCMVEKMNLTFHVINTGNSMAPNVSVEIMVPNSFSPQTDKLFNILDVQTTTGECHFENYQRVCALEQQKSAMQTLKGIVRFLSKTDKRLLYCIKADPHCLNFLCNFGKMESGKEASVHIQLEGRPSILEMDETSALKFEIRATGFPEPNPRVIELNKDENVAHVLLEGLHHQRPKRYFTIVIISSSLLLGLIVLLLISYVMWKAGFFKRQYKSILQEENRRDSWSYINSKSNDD
T1 sequence (P26010 20-798): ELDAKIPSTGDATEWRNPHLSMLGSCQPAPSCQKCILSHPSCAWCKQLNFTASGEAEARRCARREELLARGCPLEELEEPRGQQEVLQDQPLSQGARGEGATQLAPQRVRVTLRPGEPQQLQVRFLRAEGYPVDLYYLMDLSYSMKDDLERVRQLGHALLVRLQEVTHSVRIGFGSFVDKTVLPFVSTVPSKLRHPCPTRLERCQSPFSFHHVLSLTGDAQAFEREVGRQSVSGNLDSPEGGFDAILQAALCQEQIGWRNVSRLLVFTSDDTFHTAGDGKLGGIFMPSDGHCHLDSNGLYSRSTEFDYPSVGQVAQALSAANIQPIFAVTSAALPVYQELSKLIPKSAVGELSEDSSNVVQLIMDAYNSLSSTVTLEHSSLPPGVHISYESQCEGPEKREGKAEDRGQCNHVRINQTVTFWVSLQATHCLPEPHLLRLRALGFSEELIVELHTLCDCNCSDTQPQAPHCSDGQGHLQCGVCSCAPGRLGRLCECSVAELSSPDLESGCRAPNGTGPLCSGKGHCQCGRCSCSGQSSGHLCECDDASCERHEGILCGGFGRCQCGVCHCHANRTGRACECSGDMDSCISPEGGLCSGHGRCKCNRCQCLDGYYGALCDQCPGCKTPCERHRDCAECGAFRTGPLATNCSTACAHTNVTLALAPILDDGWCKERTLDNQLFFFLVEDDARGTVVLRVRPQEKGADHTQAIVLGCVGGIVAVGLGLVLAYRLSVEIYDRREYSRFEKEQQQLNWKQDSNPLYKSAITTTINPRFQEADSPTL
Summary of the method: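 RPMI8866 cells (0.5×10^6 cells/mL in DMEM + 0.5% FBS + 0.5 mM MnCl2) preincubated with compound 1 h at 37 °C, then allowed to adhere 30 min at 37 °C to plates coated with MAdCAM-1 extracellular domain (1.0 μg/mL). Bound cells fixed with 2% glutaraldehyde, Hoechst-stained, imaged and counted; EC50 from cell count versus concentration.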

| Molecule | pEC50 |
| --- | --- |
| O=C1CCc2c(C[C@H](NC(=O)c3c(F)cccc3F)C(=O)O)ccc(-c3c(Cl)cc(F)cc3Cl)c2N1 [Example 103, (S)-3-(8-(2,6-dichloro-4-fluorophenyl)-2-oxo-1,2,3,4-tetrahydroquinolin-5-yl)-2-(2,6-difluorobenzamido)propanoic acid] | 7.02 |
| CC[C@@H](Nc1cc(F)c(C(=O)N[C@@H](Cc2ccc(-c3c(C)nc(C)n(C)c3=O)c3c2CCCO3)C(=O)O)c(F)c1F)C(F)(F)F [Example 126] | 9.42 |
| Cc1c(-c2ccc(C[C@H](NC(=O)c3c(F)cccc3F)C(=O)O)c3c2OCCC3)c(=O)n(C)c2ccccc12 (single isomer, unassigned) [Example 59] | 8.82 |
| Cc1nc(-c2ccc(C[C@H](NC(=O)c3c(F)cc(N4CCOC[C@@H]4C(F)(F)F)cc3F)C(=O)O)c3c2CC(O)C3)c(=O)n(C)c1C (stereo partly shown) [Example 197] | 9.51 |
| C=C1COCCN(c2cc(F)c(C(=O)N[C@@H](Cc3ccc(-c4nc(C)c(C)n(C)c4=O)c4c3CCCO4)C(=O)O)c(F)c2)C1 [Example 158] | 9.30 |
| Cc1cc(N2CCCC[C@@H]2C(F)(F)F)cc(F)c1C(=O)N[C@@H](Cc1ccc(-c2nc(C)c(C)n(C)c2=O)c2c1CCCO2)C(=O)O [Example 149] | 9.15 |
| CC1(C)CCc2c(C[C@H](NC(=O)c3c(Cl)cccc3Cl)C(=O)O)ccc(-c3c(Cl)cc(F)cc3Cl)c2O1 [Example 95, (S)-3-(8-(2,6-dichloro-4-fluorophenyl)-2,2-dimethylchroman-5-yl)-2-(2,6-dichlorobenzamido)propanoic acid] | 6.20 |
| O=C(N[C@@H](Cc1ccc(-c2c(Cl)cc(F)cc2Cl)c2c1OCCCO2)C(=O)O)c1c(Cl)cccc1Cl [Example 97, (S)-3-(9-(2,6-dichloro-4-fluorophenyl)-3,4-dihydro-2H-benzo[b][1,4]dioxepin-6-yl)-2-(2,6-dichlorobenzamido)propanoic acid] | 7.21 |
| Cc1ncc(-c2ccc(C[C@H](NC(=O)c3c(F)cc(N4CCOC[C@@H]4C(F)(F)F)cc3F)C(=O)O)c3c2OCCO3)c(=O)n1C [Example 177] | 9.23 |
| Cc1cc(N2CCOC[C@@H]2C(F)(F)F)cc(F)c1C(=O)N[C@@H](Cc1ccc(-c2cc(N(C)C)c(C)n(C)c2=O)c2c1CCCO2)C(=O)O [Example 147] | 8.62 |
| COc1cccc(OC)c1-c1ccc(CC(NC(=O)c2c(F)cc(NS(=O)(=O)c3ccc(-n4cncn4)cc3)cc2F)C(=O)O)c2c1CN(C)CC2 (stereo not shown) [Example 106, 2-(4-((4-(1H-1,2,4-triazol-1-yl)phenyl)sulfonamido)-2,6-difluorobenzamido)-3-(8-(2,6-dimethoxyphenyl)-2-methyl-1,2,3,4-tetrahydroisoquinolin-5-yl)propanoic acid] | 9.23 |
| Cn1cc(-c2ccc(C[C@H](NC(=O)c3c(F)cccc3F)C(=O)O)c3c2OCCC3)c(=O)n(C)c1=O [Example 73, (S)-2-(2,6-difluorobenzamido)-3-(8-(1,3-dimethyl-2,4-dioxo-1,2,3,4-tetrahydropyrimidin-5-yl)chroman-5-yl)propanoic acid] | 7.76 |
| N#Cc1ccc(-c2ccc(C[C@H](NC(=O)c3c(F)cccc3F)C(=O)O)c3c2OCCC3)c(Cl)c1 [Example 72, (S)-3-(8-(2-chloro-4-cyanophenyl)chroman-5-yl)-2-(2,6-difluorobenzamido)propanoic acid] | 7.27 |
| O=C(N[C@@H](Cc1ccc(-c2c(Cl)cc(F)cc2Cl)c2c1CCCN2)C(=O)O)c1c(F)cccc1F [Example 101, (S)-3-(8-(2,6-dichloro-4-fluorophenyl)-1,2,3,4-tetrahydroquinolin-5-yl)-2-(2,6-difluorobenzamido)propanoic acid] | 7.57 |
| Cn1c2c(nc(-c3ccc(C[C@H](NC(=O)c4c(F)cc(N5CCOC[C@@H]5C(F)(F)F)cc4F)C(=O)O)c4c3OCCC4)c1=O)CCCC2 [Example 127] | 9.34 |
| Cc1cc(C(F)(F)F)c(-c2ccc(C[C@H](NC(=O)c3c(F)cc(N[C@H](C)C(F)(F)F)cc3F)C(=O)O)c3c2OCCC3)c(=O)n1C (single isomer, unassigned) [Example 42] | 8.85 |
| (S)-2-(2,6-difluoro-4-(((R)-1,1,1-trifluorobutan-2-yl)amino)benzamido)-3-(7-(1,4-dimethyl-2-oxo-5-(trifluoromethyl)-1,2-dihydropyridin-3-yl)-1,3-dihydroisobenzofuran-4-yl)propanoic acid [Example 25] | 8.55 |
| CC[C@@H](Nc1cc(F)c(C(=O)N[C@@H](Cc2ccc(-c3nc(C)c(C)n(C)c3=O)c3c2CCCO3)C(=O)O)c(F)c1)C(F)(F)F [Example 49, (S)-2-(2,6-difluoro-4-(((R)-1,1,1-trifluorobutan-2-yl)amino)benzamido)-3-(8-(4,5,6-trimethyl-3-oxo-3,4-dihydropyrazin-2-yl)chroman-5-yl)propanoic acid] | 9.08 |
| Cc1c(-c2ccc(C[C@H](NC(=O)c3c(F)cc(N4CCOC[C@@H]4C(F)(F)F)cc3F)C(=O)O)c3c2OCCO3)c(=O)n(C)c(=O)n1C (single isomer, unassigned) [Example 8] | 9.52 |

Now those with a higher pEC50, led by results:

| pEC50 | Molecule |
| --- | --- |
| 10.03 | Cc1cc(N2CCOC[C@@H]2C(F)(F)F)cc(F)c1C(=O)N[C@@H](Cc1ccc(-c2c(C(F)(F)F)cc(C)n(C)c2=O)c2c1CCCO2)C(=O)O [Example 135] |
| 10.05 | Cc1cc(N2CCOC[C@@H]2C(F)(F)F)cc(F)c1C(=O)N[C@@H](Cc1ccc(-c2c(C)nc(C)n(C)c2=O)c2c1CCCO2)C(=O)O (atropisomer, axis not shown) [Example 120] |
| 9.70 | Cn1c(=O)c(-c2ccc(C[C@H](NC(=O)c3c(F)cc(N4CCOC[C@@H]4C(F)(F)F)cc3F)C(=O)O)c3c2OCCC3)cc2cnccc21 [Example 171] |
| 9.63 | Cc1c(-c2ccc(C[C@H](NC(=O)c3c(F)cc(N4CCOC[C@@H]4C(F)(F)F)cc3F)C(=O)O)c3c2OCCC3)c(=O)n(C)c2ccc(F)cc12 [Example 34, (S)-2-(2,6-difluoro-4-((R)-3-(trifluoromethyl)morpholino)benzamido)-3-(8-(6-fluoro-1,4-dimethyl-2-oxo-1,2-dihydroquinolin-3-yl)chroman-5-yl)propanoic acid] |
| 10.08 | Cc1cc(N2CCOC[C@@H]2C(F)(F)F)cc(F)c1C(=O)N[C@@H](Cc1ccc(-c2c(C(F)(F)F)cc(C)n(C)c2=O)c2c1CCC2)C(=O)O [Example 200] |
| 9.69 | Cc1nc(-c2ccc(C[C@H](NC(=O)c3c(F)cc(N4CCOC[C@@H]4C(F)(F)F)cc3F)C(=O)O)c3c2OCCO3)c(=O)n(C)c1C [Example 175] |
| 9.70 | Cc1cc(C)n(C)c(=O)c1-c1ccc(C[C@H](NC(=O)c2c(F)cc(N3CCOC[C@@H]3C(F)(F)F)cc2F)C(=O)O)c2c1CCC2 [Example 195] |
| 9.90 | Cc1cc(C(F)(F)F)c(-c2ccc(C[C@H](NC(=O)c3c(F)cc(N4CCOC[C@@H]4C(F)(F)F)cc3F)C(=O)O)c3c2OCCC3)c(=O)n1C (single isomer, unassigned) [Example 39] |
| 9.57 | Cc1cc(N2CCOC[C@@H]2C(F)(F)F)cc(F)c1C(=O)N[C@@H](Cc1ccc(-c2nc(C)c(C)n(C)c2=O)c2c1OCCO2)C(=O)O [Example 179] |

Source: patent publication US20220226337A1 (Gilead Sciences, Inc., priority 2018, published 2022)
